Holding throughout (format): in vivo, human
The test system of data set [1] is patients with glaucoma or ocular hypertension. Briefly: Phase 1/2 study Part 2: pupil size. From the text: (§1) Part 1 was an open-label dose escalation study. The purpose of Part 1 of this study (WB007-001), was to assess the safety, tolerability, and IOP-lowering effects of a single drop of an ophthalmic solution containing [3-[(1S)-1-(1H-imidazole-5-yl)ethyl]-2-methylphenyl]methyl-2,2-dimethylpropanoate (Compound 1) with concentrations ranging from 0.05% to 0.4%. […] In addition to assessing the efficacy of Compound 1 on lowering IOP, the study also assessed the effects of the drug on visual function.
The effect of Compound 1 on pupil size was assessed at the baseline visit and on Day 14.

Data set [2] has the same test system. Briefly: Phase 1/2 study Part 2: low-luminance ETDRS visual acuity.
From the text: Low-luminance visual acuity refers to visual acuity determined using the standard Early Treatment Diabetic Retinopathy Study (ETDRS) chart with a 2.0 log unit neutral density filter placed in front of the eye.
as §1
Additional analyses examining the effect of Compound 1 on visual function included low-luminance visual acuity and visual fields.

The test system is the same in data set [3]. Briefly: Phase 1/2 study Part 2: double-masked, randomized, active controlled, ocular hypotensive efficacy (IOP), twice daily. The settings on record: for mean change from baseline in IOP, primary endpoint: Part 2, Day 14, Hour 2, study eye; for IOP-lowering effect, mean change from baseline in the study eye at all postbaseline timepoints: Part 2, both Compound 1 groups (0.15%, 0.4%) p≤0.007, Timolol p≤0.004.

For data set [4] the test system is unchanged. Briefly: Phase 1/2 study: safety, tolerability and comfort. The following applies: both doses (0.15%, 0.4%).
From the text: as §1

Data set [5] shares this test system. In words: Phase 1/2 study Part 2: visual field mean deviation. The following applies: for visual field change in mean deviation: non-study eye, Day 14; for visual field mean deviation change from Baseline at Day 14: study eyes, positive change = improvement; for Improvement ≥1 dB in Study Eye, number of patients / Improvement ≥1 dB in Study Eye, percentage of patients / Improvement ≥1 dB in Treated Non-Study Eye, number of patients / Improvement ≥1 dB in Treated Non-Study Eye, percentage of patients: visual field.

Structures are written as SMILES.

`Cc1c(COC(=O)C(C)(C)C)cccc1[C@H](C)c1c[nH]cn1` [Compound 1, [3-[(1S)-1-(1H-imidazole-5-yl)ethyl]-2-methylphenyl]methyl-2,2-dimethylpropanoate]: the “effect on pupil size” value in data set [1] (either dose (0.15%, 0.4%)) is reported as “no meaningful decrease in pupil size”. Also, the “mean change in pupil size from Baseline to Day 14 at Hour 0” value (“mean change in pupil size from Baseline” for short) is recorded as 0.0 mm in data set [1] (study eyes, 0.15%); −0.1 mm in data set [1] (study eyes, 0.4%); 0.0 mm in data set [1] (treated non-study eyes, 0.15%); −0.1 mm in data set [1] (treated non-study eyes, 0.4%). Besides, the “percentage of subjects achieving an increase in ETDRS visual acuity of 15 or more letters under low luminance on at least one study visit” value was determined as 17.4% in data set [2] (non-study eye, 0.15%); 25.0% in data set [2] (non-study eye, 0.4%); 8.7% in data set [2] (study eye, 0.15%); 16.7% in data set [2] (study eye, 0.4%). Moreover, the “effect on low luminance visual acuity” value in data set [2] (patients receiving 0.15% or 0.4%) is listed as “Dose related improvements in low luminance visual acuity”. The “mean change from baseline in IOP, primary endpoint” value was −4.9±1.8 mm Hg in data set [3] (0.15% twice daily) and −5.1±2.5 mm Hg in data set [3] (0.4% twice daily). Moreover, the “IOP-lowering effect, mean change from baseline in the study eye at all postbaseline timepoints” value in data set [3] is “statistically significant IOP-lowering effects”. Also, the safety and tolerability entry in data set [4] was “safe and well-tolerated”. For the same compound, the “visual field change in mean deviation” value in data set [5] (0.15%) is reported as 0.4±1.5 dB; in data set [5] (0.4%) it was −0.2±1.4 dB. Besides, the “visual field mean deviation change from Baseline at Day 14” value in data set [5] (0.15%) is given as 0.2±1.2 dB; in data set [5] (0.4%), −0.5±2.3 dB. The “Improvement ≥1 dB in Study Eye, number of patients” value in data set [5] (0.15%) is recorded as 9 patients; in data set [5] (0.4%) it was 6 patients. Besides, the “Improvement ≥1 dB in Study Eye, percentage of patients” value was found to be 39% in data set [5] (0.15%) and 25% in data set [5] (0.4%). Moreover, the “Improvement ≥1 dB in Treated Non-Study Eye, number of patients” value in data set [5] (0.15%) was determined as 7 patients; in data set [5] (0.4%) it was 6 patients. Further, the entries for the “Improvement ≥1 dB in Treated Non-Study Eye, percentage of patients” value in data set [5] (0.15%) and in data set [5] (0.4%) were 30% and 25%, respectively.

Consider `CC(C)(C)NC[C@H](O)COc1nsnc1N1CCOCC1` [Timolol, timolol, reference compound], for which the “mean change in pupil size from Baseline” value in data set [1] (study eyes, Timolol 0.5%) is given as −0.1 mm. For the same compound, the “mean change in pupil size from Baseline” value in data set [1] (treated non-study eyes, Timolol 0.5%) was −0.1 mm. Besides, in data set [2] (non-study eye, timolol 0.5%), the “percentage of subjects achieving an increase in ETDRS visual acuity of 15 or more letters under low luminance on at least one study visit” value turned out to be 8.3%. Further, the “percentage of subjects achieving an increase in ETDRS visual acuity of 15 or more letters under low luminance on at least one study visit” value in data set [2] (study eye, timolol 0.5%) is 0%. The “mean change from baseline in IOP, primary endpoint” value in data set [3] (0.5% timolol ophthalmic solution) was −6.0±3.0 mm Hg. Further, the “IOP-lowering effect, mean change from baseline in the study eye at all postbaseline timepoints” value in data set [3] is recorded as “statistically significant IOP-lowering effects”. In addition, in data set [5] (Timolol 0.5%), the “visual field change in mean deviation” value was −2.0±3.4 dB; the “visual field mean deviation change from Baseline at Day 14” value was −1.2±2.3 dB; the “Improvement ≥1 dB in Study Eye, number of patients” value is 2 patients; the “Improvement ≥1 dB in Study Eye, percentage of patients” value came to 17%. In data set [5] (Timolol 0.5%), the “Improvement ≥1 dB in Treated Non-Study Eye, number of patients” value was 0 patients (0%) and the “Improvement ≥1 dB in Treated Non-Study Eye, percentage of patients” value is on record as 0 patients (0%).
